# Test results as given in patent US20110189675A1, “Method For Administering Anticoagulation Therapy” (Marshfield Clinic, priority 2007, published 2011).
# Tests used:
# [1] = Pooled regression models of stable warfarin dose versus CYP4F2 rs2108622 genotype, three Caucasian cohorts; format: in vivo, human
# From the text: Therefore, we conducted multiple regression analyses only on the *1 genotypes (n=1009), and used the observed mean dose (log scale) as the predicted value for those with only non-wild CYP2C9 alleles (*2/*2, *2/*3, and *3/*3, n=42). Accordingly, our models that include genetic variables are composites of multiple regression and simple mean-based estimation approaches.
# To assess the relative contribution of clinical and genetic factors, three models were developed using different sets of potential predictor variables: clinical factors only (gender, age, body surface area, and target international normalized ratio), clinical factors plus CYP2C9 and VKORC1, and clinical factors CYP2C9, VKORC1, and rs2108622. A modified step-down approach^29 was used, starting with a “full” model which included all potential predictors pertinent to that model, effects to allow the three study sites to differ, two-factor interactions (including those by site), and quadratic terms for age, body surface area, and target international normalized ratio. […] The regression models were finalized after evaluating residuals and excluding cases with large residuals as outliers (|Studentized Residual|>3).
# The explanatory power for the three final models was assessed graphically and by using the adjusted r-squared (R^2adj). The R^2adj statistic measures the proportion of the total variability explained by the model with adjustment for the number of parameters in the model. The statistic was directly calculated to use all cases under analysis by pooling across both parts of the composite models and by applying the final regression model to any outliers dropped when estimating the parameters in the regression models.
# [2] = Stable therapeutic warfarin dose by CYP2C9, VKORC1 and rs2108622 (CYP4F2) genotype, 424 subjects; format: in vivo, human
# From the text: The initial cohort was recruited at Marshfield Clinic, a multi-specialty group practice in Wisconsin as described.^6, 16 Patients were excluded from the study if they were known to have cancer, renal or hepatic insufficiency, or congestive heart failure.
# The targeted human DMET 1.0 assay (Affymetrix, Inc, Santa Clara, Calif.) utilizes molecular inversion probes and GeneChip universal tag arrays to target 1228 single nucleotide polymorphisms (SNP) within 170 genes for metabolic enzymes and transport and regulatory proteins (Table 2).
# The laboratory protocol followed the standard process described in the Targeted Genotyping System User Guide^25 except for a preliminary polymerase chain reaction (PCR)-amplification step aimed at resolving genotypes from 29 SNPs in regions containing pseudogenes and close homologues. GeneChip Targeted Genotyping Analysis software was used to make genotype calls and generate QC metrics including call rates, average signal, cluster quality, Hardy-Weinberg equilibrium, and reproducibility. […] Genotypes represented by the remaining 1217 SNP assays were called according to either predefined boundaries (derived from historical training sets) or dynamic clustering using the current data set. […] The remaining polymorphisms target rare mutations or SNPs prevalent in other racial groups.
# VKORC1 genotypes were determined on 436 Marshfield Clinic samples as described^6 and on the remaining 61 samples using Invader® chemistry in a laboratory test developed with analyte specific reagents manufactured by Third Wave Technologies (TWT, Madison, Wis.). The laboratory developed assay used analyte-specific reagents that detect CYP2C9*2, CYP2C9*3, and VKORC1 (position −1639).^26
smiles,measurement,setting,value
CC(=O)CC(c1ccccc1)c1c(O)c2ccccc2oc1=O (stereo not shown) [warfarin],"increase in warfarin dose with each T allele (CYP4F2 effect, final pooled model)",[1]; Marshfield,12.8%
same,absolute contribution of CYP4F2 to stable warfarin dose,[1]; Marshfield cohort,26%
same,"increase in warfarin dose with each T allele (CYP4F2 effect, final pooled model)",[1]; University of Florida,6.8%
same,"increase in warfarin dose with each T allele (CYP4F2 effect, final pooled model)",[1]; Washington University in St. Louis,3.8%
same,absolute contribution of CYP4F2 to stable warfarin dose,[1]; Washington University in St. Louis cohort,8%
same,"difference in warfarin dose requirement, two TT alleles versus two CC alleles of CYP4F2 rs2108622","[1]; pooled analyses, three Caucasian cohorts stabilized on warfarin",about 1 mg/day
same,Geometric Mean warfarin dose,"[2]; CYP2C9 *1/*1, VKORC1 CC, rs2108622 CC, N=13",20.0 mg/week
same,Geometric Mean warfarin dose,"[2]; CYP2C9 *1/*1, VKORC1 CC, rs2108622 CT, N=18",21.1 mg/week
same,Geometric Mean warfarin dose,"[2]; CYP2C9 *1/*1, VKORC1 CC, rs2108622 TT, N=2",34.5 mg/week
same,Geometric Mean warfarin dose,"[2]; CYP2C9 *1/*1, VKORC1 CG, rs2108622 CC, N=68",29.6 mg/week
same,Geometric Mean warfarin dose,"[2]; CYP2C9 *1/*1, VKORC1 CG, rs2108622 CT, N=46",31.9 mg/week
same,Geometric Mean warfarin dose,"[2]; CYP2C9 *1/*1, VKORC1 CG, rs2108622 TT, N=12",37.9 mg/week
same,Geometric Mean warfarin dose,"[2]; CYP2C9 *1/*1, VKORC1 GG, rs2108622 CC, N=64",39.5 mg/week
same,Geometric Mean warfarin dose,"[2]; CYP2C9 *1/*1, VKORC1 GG, rs2108622 CT, N=41",45.1 mg/week
same,Geometric Mean warfarin dose,"[2]; CYP2C9 *1/*1, VKORC1 GG, rs2108622 TT, N=8",47.3 mg/week
same,Geometric Mean warfarin dose,"[2]; CYP2C9 *1/*2, VKORC1 CC, rs2108622 CC, N=3",16.6 mg/week
same,Geometric Mean warfarin dose,"[2]; CYP2C9 *1/*2, VKORC1 CC, rs2108622 CT, N=5",19.6 mg/week
same,Geometric Mean warfarin dose,"[2]; CYP2C9 *1/*2, VKORC1 CC, rs2108622 TT, N=1",17.5 mg/week
same,Geometric Mean warfarin dose,"[2]; CYP2C9 *1/*2, VKORC1 CG, rs2108622 TT, N=5",31.0 mg/week
same,Geometric Mean warfarin dose,"[2]; CYP2C9 *1/*2, VKORC1 GG, rs2108622 CC, N=13",29.7 mg/week
same,Geometric Mean warfarin dose,"[2]; CYP2C9 *1/*2, VKORC1 GG, rs2108622 CT, N=17",34.1 mg/week
same,Geometric Mean warfarin dose,"[2]; CYP2C9 *1/*3, VKORC1 CC, rs2108622 CT, N=2",21.3 mg/week
same,Geometric Mean warfarin dose,"[2]; CYP2C9 *1/*3, VKORC1 CG, rs2108622 CC, N=13",21.5 mg/week
same,Geometric Mean warfarin dose,"[2]; CYP2C9 *1/*3, VKORC1 GG, rs2108622 CC, N=5",22.3 mg/week
same,Geometric Mean warfarin dose,"[2]; CYP2C9 *1/*3, VKORC1 GG, rs2108622 TT, N=3",34.5 mg/week
same,Geometric Mean warfarin dose,"[2]; CYP2C9 *2/*2, VKORC1 CG, rs2108622 CC, N=1",22.0 mg/week
same,Geometric Mean warfarin dose,"[2]; CYP2C9 *2/*2, VKORC1 CG, rs2108622 CT, N=1",28.0 mg/week
same,Geometric Mean warfarin dose,"[2]; CYP2C9 *2/*2, VKORC1 CG, rs2108622 TT, N=1",35.0 mg/week
same,Geometric Mean warfarin dose,"[2]; CYP2C9 *2/*2, VKORC1 GG, rs2108622 CC, N=1",18.5 mg/week
same,Geometric Mean warfarin dose,"[2]; CYP2C9 *2/*2, VKORC1 GG, rs2108622 CT, N=1",37.5 mg/week
same,Geometric Mean warfarin dose,"[2]; CYP2C9 *2/*2, VKORC1 GG, rs2108622 TT, N=1",35.0 mg/week
same,Geometric Mean warfarin dose,"[2]; CYP2C9 *2/*3, VKORC1 CC, rs2108622 CC, N=1",20.0 mg/week
same,Geometric Mean warfarin dose,"[2]; CYP2C9 *2/*3, VKORC1 CG, rs2108622 CT, N=1",22.5 mg/week
same,Geometric Mean warfarin dose,"[2]; CYP2C9 *2/*3, VKORC1 CG, rs2108622 TT, N=1",15.0 mg/week
same,Geometric Mean warfarin dose,"[2]; CYP2C9 *2/*3, VKORC1 GG, rs2108622 CC, N=3",15.3 mg/week
same,Geometric Mean warfarin dose,"[2]; CYP2C9 *3/*3, VKORC1 CG, rs2108622 CC, N=1",6.5 mg/week
same,Geometric Mean warfarin dose,"[2]; CYP2C9 *3/*3, VKORC1 CG, rs2108622 CT, N=1",4.5 mg/week
